# What was measured:
# Type in all cases: in vivo
# [1] = system: ryegrass, Italian (Italian ryegrass, Lolium multiflorum); test: Test D controlled growth environment herbicide test, pre- and postemergence
# Outline: (§1)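 Rating is visual, 0–100 scale (100 = complete control), made against untreated plants 14–21 d after treatment in controlled growth conditions. Postemergence sprays went onto 1- to 4-leaf plants in peat medium; preemergence sprays onto silt loam after sowing; formulation included a surfactant.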
# [2] = system: mustard, wild (wild mustard, Sinapis arvensis); test: as above
# Outline: as §1
# [3] = system: buckwheat, wild (wild buckwheat, Polygonum convolvulus); test: as above
# Outline: as §1
# [4] = system: crabgrass, Brazilian (Brazilian crabgrass, Digitaria horizontalis); test: Test E greenhouse herbicide test, pre- and postemergence
# Outline: (§2)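 Greenhouse pots; preemergence on silt loam, postemergence on plants 1- to 4-leaf (2 to 18 cm) grown in peat, vermiculite and nutrient medium. Test chemicals formulated in non-phytotoxic solvent with surfactant. Ratings taken after 14 to 21 d.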
# [5] = system: momingglory (Ipomoea coccinea); test: as above; conditions: Preemergence
# Outline: as §2
# [6] = system: surinam grass (Brachiaria decumbens); test: as above; conditions: Preemergence
# Outline: as §2
# kochia (Kochia scoparia) = test: as above
# Outline: as §2
# [7] = system: Italian ryegrass (Lolium multiflorum); test: as above
# Outline: as §2
# [8] = system: crabgrass, large (large crabgrass, Digitaria sanguinalis); test: as above; conditions: Preemergence
# Outline: as §2
# [9] = system: nightshade (eastern black nightshade, Solanum ptycanthum); test: as above; conditions: Preemergence
# Outline: as §2
# [10] = Postemergence, 31 g ai/ha, scale 0 to 100 (0 no effect, 100 complete control)
# [11] = Postemergence, 125 g ai/ha, visual rating on scale 0 (no effect) to 100 (complete control), 14 to 21 d
# [12] = Postemergence, 250 g ai/ha, scale 0 to 100 (0 no effect, 100 complete control)
# [13] = Preemergence, 62 g ai/ha, scale 0 to 100 (0 no effect, 100 complete control)
# [14] = Preemergence, 125 g ai/ha, scale 0 to 100 (0 no effect, 100 complete control)
# [15] = Preemergence, 250 g ai/ha, scale 0 to 100, 0 no effect, 100 complete control
# [16] = postemergence, 62 g ai/ha, scale 0 to 100, 0 no effect, 100 complete control
# [17] = 62 g ai/ha, Postemergence, scale 0 to 100 (0 no effect, 100 complete control)
# [18] = 62 g ai/ha, Preemergence, scale 0 to 100 (0 no effect, 100 complete control)
# [19] = 125 g ai/ha, Postemergence, scale 0 to 100 (0 no effect, 100 complete control)
# [20] = 250 g ai/ha, Postemergence, scale 0 to 100 (0 no effect, 100 complete control)
# [21] = Postemergence, 31 g ai/ha, visual, scale 0 no effect to 100 complete control
# [22] = Preemergence, 31 g ai/ha, scale 0 to 100, 0 no effect, 100 complete control
# [23] = Preemergence, 125 g ai/ha, visual, scale 0 no effect to 100 complete control
# [24] = Preemergence, 250 g ai/ha, visual, scale 0 no effect to 100 complete control
# [25] = 62 g ai/ha, scale 0 to 100 (0 no effect, 100 complete control)
# [26] = 125 g ai/ha, scale 0 to 100 (0 no effect, 100 complete control)
# [27] = 31 g ai/ha, scale 0 to 100, 0 no effect, 100 complete control
# [28] = 250 g ai/ha, visual, scale 0 no effect to 100 complete control
compound,measurement,setting,value
Cc1cc2ccccc2c(-c2c(O)c(C)nn(C)c2=O)c1C [Compound 34],"Ryegrass, Italian plant response rating",[1]; [10],90
same,"Plant response rating, Ryegrass, Italian",[1]; [11],95
same,"Plant response rating, Ryegrass, Italian",[1]; [12],95
same,"Plant response rating (scale of 0 to 100), Ryegrass, Italian","[1]; Preemergence, 31 g ai/ha",75
same,"Plant response rating, Ryegrass, Italian",[1]; [13],95
same,"Plant response rating, Ryegrass, Italian",[1]; [14],100
same,"Plant response rating, Ryegrass, Italian",[1]; [15],100
same,"Plant response rating, Ryegrass, Italian",[1]; [16],95
same,"Mustard, Wild plant response rating",[2]; [10],80
same,"Plant response rating, Mustard, Wild",[2]; [11],100
same,"Plant response rating, Mustard, Wild",[2]; [12],100
same,"Plant response rating (scale of 0 to 100), Mustard, Wild","[2]; Preemergence, 31 g ai/ha",15
same,"Plant response rating, Mustard, Wild",[2]; [13],25
same,"Plant response rating, Mustard, Wild",[2]; [14],75
same,"Plant response rating, Mustard, Wild",[2]; [15],100
same,"Plant response rating, Mustard, Wild",[2]; [16],85
same,"Buckwheat, Wild plant response rating",[3]; [10],100
same,"Plant response rating, Buckwheat, Wild",[3]; [11],100
same,"Plant response rating, Buckwheat, Wild",[3]; [12],100
same,"Plant response rating (scale of 0 to 100), Buckwheat, Wild","[3]; Preemergence, 31 g ai/ha",0
same,"Plant response rating, Buckwheat, Wild",[3]; [13],10
same,"Plant response rating, Buckwheat, Wild",[3]; [14],0
same,"Plant response rating, Buckwheat, Wild",[3]; [15],0
same,"Plant response rating, Buckwheat, Wild",[3]; [16],100
same,"Plant response rating, Crabgrass, Brazil",[4]; [17],40
same,"Plant response rating, Crabgrass, Brazil",[4]; [18],10
same,"Plant response rating, Crabgrass, Brazil",[4]; [19],50
same,"Plant response rating, Crabgrass, Brazil",[4]; [20],50
same,"Plant response rating, Crabgrass, Brazil",[4]; [21],40
same,"Plant response rating, Crabgrass, Brazil",[4]; [22],0
same,"Plant response rating, Crabgrass, Brazil",[4]; [23],80
same,"Plant response rating, Crabgrass, Brazil",[4]; [24],80
same,"Plant response rating, Morningglory",[5]; [25],25
same,"Plant response rating, Morningglory",[5]; [26],35
same,"Plant response rating, Morningglory",[5]; [27],0
same,"Plant response rating, Morningglory",[5]; [28],90
same,"Plant response rating, Surinam Grass",[6]; [25],75
same,"Plant response rating, Surinam Grass",[6]; [26],95
same,"Plant response rating, Surinam Grass",[6]; [27],5
same,"Plant response rating, Surinam Grass",[6]; [28],80
same,"Plant response rating, Kochia",kochia (Kochia scoparia); [17],98
same,"Plant response rating, Kochia",kochia (Kochia scoparia); [18],5
same,"Plant response rating, Kochia",kochia (Kochia scoparia); [19],85
same,"Plant response rating, Kochia",kochia (Kochia scoparia); [20],85
same,"Plant response rating, Kochia",kochia (Kochia scoparia); [21],70
same,"Plant response rating, Kochia",kochia (Kochia scoparia); [22],0
same,"Plant response rating, Kochia",kochia (Kochia scoparia); [23],5
same,"Plant response rating, Kochia",kochia (Kochia scoparia); [24],85
same,"Plant response rating, Ryegrass, Italian",[7]; [17],80
same,"Plant response rating, Ryegrass, Italian",[7]; [18],100
same,"Plant response rating, Ryegrass, Italian",[7]; [19],85
same,"Plant response rating, Ryegrass, Italian","[7]; 125 g ai/ha, Preemergence, scale 0 to 100 (0 no effect, 100 complete control)",100
same,"Plant response rating, Ryegrass, Italian",[7]; [20],90
same,"Plant response rating, Ryegrass, Italian",[7]; [21],65
same,"Plant response rating, Ryegrass, Italian",[7]; [22],90
same,"Plant response rating, Ryegrass, Italian",[7]; [24],100
same,"Plant response rating, Crabgrass, Large",[8]; [25],0
same,"Plant response rating, Crabgrass, Large",[8]; [27],0
same,"Plant response rating, Crabgrass, Large","[8]; 125 g ai/ha, visual, scale 0 no effect to 100 complete control",50
same,"Plant response rating, Crabgrass, Large",[8]; [28],20
same,"Plant response rating, Nightshade",[9]; [25],25
same,"Plant response rating, Nightshade",[9]; [26],98
same,"Plant response rating, Nightshade",[9]; [27],0
same,"Plant response rating, Nightshade",[9]; [28],95
